Data as given in patent publication US9708293B2, “N-(pyridin-2-yl)pyrimidin-4-amine derivatives containing a sulfone group” (BAYER PHARMA AKTIENGESELLSCHAFT, priority 2012, dated 2017).

How the values were obtained:
[1] = Caco-2 permeation assay; type: in vitro ADME; details: human, pH 7.2, Caco-2, test compound 2 μM
Protocol: 4. Caco-2 Permeation Assay:
Caco-2 cells (purchased from DSMZ Braunschweig, Germany) were seeded at a density of 4.5×10^4 cells per well on 24 well insert plates, 0.4 μm pore size, and grown for 15 days in DMEM medium supplemented with 10% fetal bovine serum, 1% GlutaMAX (100x, GIBCO), 100 U/mL penicillin, 100 μg/mL streptomycin (GIBCO) and 1% non essential amino acids (100×). Cells were maintained at 37° C. in a humified 5% CO2 atmosphere. Medium was changed every 2-3 day. Before running the permeation assay, the culture medium was replaced by a FCS-free hepes-carbonate transport buffer (pH 7.2). For assessment of monolayer integrity the transepithelial electrical resistance (TEER) was measured. Test compounds were predissolved in DMSO and added either to the apical or basolateral compartment in final concentration of 2 μM in transport buffer. Before and after 2h incubation at 37° C. samples were taken from both compartments. Analysis of compound content was done after precipitation with methanol by LC/MS/MS analysis. Permeability (Papp) was calculated in the apical to basolateral (A →B) and basolateral to apical (B→A) directions. The apparent permeability was calculated using following equation: Papp=(Vr/Po)(1/S)(P2/t)
Where Vr is the volume of medium in the receiver chamber, Po is the measured peak area or height of the test drug in the donor chamber at t=o, S the surface area of the monolayer, P2 is the measured peak area of the test drug in the acceptor chamber after 2h of incubation, and t is the incubation time. The efflux ratio basolateral (B) to apical (A) was calculated by dividing the Papp B-A by the Papp A-B. In addition the compound recovery was calculated. The following reference compounds were used for the classification of the permeability class: Antipyrine, Pyrazosin, Verapamil, Fluvastatin, Cimetidine, Ranitidine, Atenolol, Sulfasalazine.

[2] = system: MOLM13 cells; experiment: Proliferation assay, MOLM-13; type: cell-based; details: Homo sapiens, 72-hour exposure, Cell Titre-Glo, read-out: Inhibition of MOLM13 cell proliferation IC50
Protocol: Non-adherent MOLM-13 human acute myeloid leukemia cells (DSMZ ACC 554) were seeded at a density of 5,000 cells/well in a 96-well multititer plate in 100 μL of growth medium supplemented 10% fetal calf serum. After 24 hours, cell viability of one plate (zero-point plate) was determined with the Cell Titre-Glo Luminescent Cell Viability Assay (Promega), while 50 μL of test compound containing medium was added to the wells of the other plates (final concentrations in the range of 0.001-10 μM and DMSO controls; the final concentration of the solvent dimethyl sulfoxide was 0.5%). Cell viability was assessed after 72-hour exposure with the Cell Titre-Glo Luminescent Cell Viability Assay (Promega). IC50 values (inhibitory concentration at 50% of maximal effect) were determined by means of a 4 parameter fit on measurement data which were normalized to vehicle (DMSO) treated cells (=100%) and measurement readings taken immediately before compound exposure (=0%).

COc1cc(F)ccc1-c1cc(Nc2cc(CS(C)(=O)=O)ccn2)ncn1 [Example 1, 6-(4-Fluoro-2-methoxyphenyl)-N-{4-[(methylsulfonyl)methyl]pyridin-2-yl}pyrimidin-4-amine]
Papp A→B at 2 h, 2 μM ([1]; 2h incubation, apical to basolateral, read-out: Papp A-B (Mari)): 178 nm/s | Papp B→A at 2 h, 2 μM ([1]; 2h incubation, basolateral to apical, read-out: Papp B-A (Mari)): 191 nm/s | efflux ratio at 2 h, 2 μM ([1]; Papp B-A / Papp A-B): 1.1

COc1cc(F)ccc1-c1cc(Nc2cc(CS(C)(=O)=O)cc(C(F)(F)F)n2)ncn1 [Example 3, 6-(4-Fluoro-2-methoxyphenyl)-N-{4-[(methylsulfonyl)methyl]-6-(trifluoromethyl)pyridin-2-yl}pyrimidin-4-amine]
IC50 [2]: 0.018 µM
